The values that follow come from the NIST ThermoML archive (doi:10.1021/je400493x).

± gives the expanded uncertainty stated by the source.

By mass density is commonly meant the mass of a sample divided by its volume. A word on the viscosity: it is the internal friction of a fluid under shear.

For data set [1] the following is noted: 298.15 K; 100 kPa; Liquid.
Data set [2] in a line: xn = mol fraction of the nth substance listed. The following applies: 298.15 K, 100 kPa, Liquid.
The conditions of data set [3]: 298.15 K, Liquid mixture 1, Drop volume.

Regarding `CCCCCCCCCCCC` [dodecane], in data set [1], the mass density is reported as 745.29 ± 4.2 kg/m3 and the viscosity was found to be 1.347 ± 0.033 mPa·s.

Regarding `CCCCCCCCCCCC` [dodecane] + CC(C)CCOP(=O)(OCCC(C)C)OCCC(C)C, in data set [2] (x2 = 0), the mass density was determined as 745.29 ± 4.2 kg/m3 and the viscosity is listed as 1.347 ± 0.033 mPa·s.

With `CCCCCCCCCCCC` [dodecane] + O, in data set [3] (100 kPa), the interfacial tension amounted to 52.6 ± 0.8 mN/m.

`CC(C)CCOP(=O)(OCCC(C)C)OCCC(C)C` [triisopentyl phosphate]: in data set [1], the mass density was 946.95 ± 1.8 kg/m3 and the viscosity came to 4.267 ± 0.076 mPa·s.

On to `CC(C)CCOP(=O)(OCCC(C)C)OCCC(C)C` [triisopentyl phosphate] + CCCCCCCCCCCC, for which the mass density in data set [2] (x1 = 0.0999) is 765.49 ± 4 kg/m3; in data set [2] (x1 = 0.1998), 785.78 ± 3.7 kg/m3; in data set [2] (x1 = 0.3001), 805.91 ± 3.5 kg/m3; in data set [2] (x1 = 0.4002), 826.05 ± 3.2 kg/m3; in data set [2] (x1 = 0.5001) it was 846.25 ± 3 kg/m3; in data set [2] (x1 = 0.5999), 866.75 ± 2.7 kg/m3. In addition, the mass density in data set [2] (x1 = 0.7002) is 888.26 ± 2.5 kg/m3; in data set [2] (x1 = 0.7998) it was 909.12 ± 2.2 kg/m3; in data set [2] (x1 = 0.9001) it was 929.41 ± 2 kg/m3; in data set [2] (x1 = 1) it was 946.95 ± 1.8 kg/m3. Besides, the viscosity in data set [2] (x1 = 0.0999) was found to be 1.488 ± 0.035 mPa·s; in data set [2] (x1 = 0.1998), 1.678 ± 0.037 mPa·s; in data set [2] (x1 = 0.3001) it was 1.896 ± 0.04 mPa·s; in data set [2] (x1 = 0.4002) it was 2.119 ± 0.043 mPa·s; in data set [2] (x1 = 0.5001) it was 2.391 ± 0.047 mPa·s; in data set [2] (x1 = 0.5999), 2.674 ± 0.051 mPa·s. In addition, the viscosity was 3.015 ± 0.056 mPa·s in data set [2] (x1 = 0.7002), 3.375 ± 0.062 mPa·s in data set [2] (x1 = 0.7998), 3.804 ± 0.068 mPa·s in data set [2] (x1 = 0.9001) and 4.267 ± 0.076 mPa·s in data set [2] (x1 = 1).

Regarding `CC(C)CCOP(=O)(OCCC(C)C)OCCC(C)C` [triisopentyl phosphate] + O, in data set [3] (101 kPa), the interfacial tension was found to be 14.4 ± 0.8 mN/m.
